System: EpidermFT™ Skin Model (EFT-400) full thickness skin cultures
Test: Affymetrix GeneChip HG U133 Plus 2.0 microarray global gene expression, agent-exposed vs untreated skin cultures
Format: cell-based, human
Details: Salicin 0.5% vs Untreated Control, 24 hr; direction down

SMILES: OCc1ccccc1O[C@@H]1O[C@H](CO)[C@@H](O)[C@H](O)[C@H]1O [Salicin, 2-(Hydroxymethyl)phenyl β-D-glucospyranoside]
- Fold change IDH2 (210045_at): 2.059
- Fold change IL22RA1 (220056_at): 2.023
- Fold change INPP5D (203332_s_at): 2.061
- Fold change ITGA3 (201474_s_at): 2.052
- Fold change JAG1 (209099_x_at): 2.044
- Fold change JAG1 (216268_s_at): 2.123
- Fold change JMJD7 /// JMJD7-PLA2G4B /// PLA2G4B (222256_s_at): 2.101
- Fold change KCNK7 (224055_x_at): 2.127
- Fold change KCTD15 (222668_at): 2.037
- Fold change KIF1B (209234_at): 2.105
- Fold change KIF1B (225878_at): 2.14
- Fold change KLK1 (216699_s_at): 2.169
- Fold change KRT5 (201820_at): 2.154
- Fold change KRT6A (209125_at): 2.034
- Fold change KRT10 (207023_x_at): 2.066
- Fold change KRTCAP3 (235148_at): 2.158
- Fold change LMNA (212089_at): 2.1
- Fold change LMNA (1554600_s_at): 2.053
- Fold change LMNB1 (203276_at): 2.146
- Fold change LOC284837 (1563088_a_at): 2.115
- Fold change LOC286440 (209733_at): 2.16
- Fold change LOC400027 (226413_at): 2.041
- Fold change LOC401233 (1558882_at): 2.002
- Fold change LOC648245 (227739_at): 2.064
- Fold change LOC652968 (233528_s_at): 2.038
- Fold change LOC727820 (227384_s_at): 2.055
- Fold change LOC100128443 /// MAST4 (210958_s_at): 2.131
- Fold change LOC100128822 (235174_s_at): 2.067
- Fold change LOC100130837 (242255_at): 2.078
- Fold change LOC100131262 (1558152_at): 2.081
- Fold change LOC100131851 /// LOC100134497 /// LOC401002 /// LOC646674 /// SSBP3 (222482_at): 2.025
- Fold change LOC100133772 /// SLC16A5 (206600_s_at): 2.044
- Fold change LOC100134937 (229685_at): 2.12
- Fold change LPHN1 (47560_at): 2.092
- Fold change LY75 (205668_at): 2.028
- Fold change LYSMD4 (228954_at): 2.116
- Fold change MAFB (218559_s_at): 2.112
- Fold change MAPRE2 (202501_at): 2.078
- Fold change MEGF9 (212831_at): 2.176
- Fold change MFAP5 (213764_s_at): 2.112
- Fold change MIB2 (226644_at): 2.032
- Fold change MPP7 (238451_at): 2.14
- Fold change MTHFR (226929_at): 2.073
- Fold change MTMR1 (214975_s_at): 2.146
- Fold change MUC1 (213693_s_at): 2.138
- Fold change MYO18A /// TIAF1 (202039_at): 2.04
- Fold change NBEAL2 (212443_at): 2.05
- Fold change NCF2 (209949_at): 2.128
- Fold change NCRNA00086 (238697_at): 2.098
- Fold change PAIP1 (208051_s_at): 2.141
- Fold change PAIP2B (221868_at): 2.043
- Fold change PAWR (204005_s_at): 2.161
- Fold change PAWR (229515_at): 2.15
- Fold change PDIK1L (227255_at): 2.059
- Fold change PERP (217744_s_at): 2.176
- Fold change PIGW (1558292_s_at): 2.085
- Fold change PLEKHA2 (225136_at): 2.159
- Fold change PLS3 (201215_at): 2.167
- Fold change PNMA2 (209598_at): 2.146
- Fold change POLE2 (205909_at): 2.104
- Fold change POLH (231115_at): 2.029
- Fold change POLR3B (219459_at): 2.135
- Fold change POU3F1 (208345_s_at): 2.16
- Fold change PPAP2C (209529_at): 2.033
- Fold change PPP1CB (201409_s_at): 2.054
- Fold change PPP2CA (208652_at): 2.035
- Fold change PRDX2 (39729_at): 2.068
- Fold change PRKX (204061_at): 2.015
- Fold change PTCH1 (209815_at): 2.148
- Fold change PTGFR (1555097_a_at): 2.022
- Fold change PVRL1 (225211_at): 2.08
- Fold change RAB7B (1553982_a_at): 2.095
- Fold change RAPGEFL1 (218657_at): 2.162
- Fold change RHOV (241990_at): 2.107
- Fold change RICS (203431_s_at): 2.143
- Fold change RNF170 (226104_at): 2.034
- Fold change RORA (235567_at): 2.083
- Fold change RPS6KA5 (204633_s_at): 2.051
- Fold change RPS6KB2 (203777_s_at): 2.074
- Fold change SCRN3 (222849_s_at): 2.115
- Fold change SDCCAG8 (243963_at): 2.133
- Fold change SEMA4D (203528_at): 2.021
- Fold change SERPINB1 (213572_s_at): 2.014
- Fold change SETBP1 (227478_at): 2.148
- Fold change SHROOM2 (204967_at): 2.088
- Fold change SLC5A3 (212944_at): 2.165
- Fold change SLC24A3 (219090_at): 2.138
- Fold change SLC45A4 (225598_at): 2.071
- Fold change SLCO3A1 (219229_at): 2.162
- Fold change SMAP2 (225282_at): 2.14
- Fold change SMCR7 (235896_s_at): 2.152
- Fold change SNX21 (1553960_at): 2.031
- Fold change SNX24 (218705_s_at): 2.152
- Fold change SORD (201563_at): 2.01
- Fold change ST8SIA4 (230836_at): 2.021
- Fold change STK24 (208854_s_at): 2.165
- Fold change SYNGR2 (201079_at): 2.14
- Fold change TANC1 (225308_s_at): 2.118
- Fold change TCEA3 (226388_at): 2.034
- Fold change TCHP (223455_at): 2.126
- Fold change TGOLN2 (1554608_at): 2.114
- Fold change THBD (203888_at): 2.109
- Fold change TIMM22 (219184_x_at): 2.067
- Fold change TMC5 (222904_s_at): 2.096
- Fold change TMEM19 (226860_at): 2.032
- Fold change TMEM45A (219410_at): 2.136
- Fold change TMEM50B (225182_at): 2.096
- Fold change TMEM80 (65630_at): 2.031
- Fold change TP53I3 (210609_s_at): 2.13
- Fold change TRAF3IP2 (202987_at): 2.079
- Fold change TRIM2 (202342_s_at): 2.062
- Fold change TTC30B (1554588_a_at): 2.011
- Fold change VPS4B (218171_at): 2.031
- Fold change WNK1 (39313_at): 2.008

Source: US20120034613A1, “Apparatus and Method for Testing Relationships Between Gene Expression and Physical Appearance of Skin” (NSE Products, Inc., priority 2010, published 2012)
